Data published in US11821109B2, “Compartmentalised combinatorial chemistry by microfluidic control” (President and Fellows of Harvard College, priority 2004, dated 2023).

Assays:
[1] = target: T1, E. coli β-galactosidase (LacZ) (Escherichia coli, UniProt P00722); conditions: Huang, 1991, cited from earlier work
[2] = target: T1, E. coli β-galactosidase (LacZ); experiment: LacZ inhibition assay in microfluidic droplets with fluorogenic substrate FMG; assay type: biochemical
Method: In the enzyme inhibition assay, the rate of catalysis is determined by using a non-fluorescent substrate for LacZ, fluorescein mono-β-D-galactoside (FMG), and measuring the appearance of the fluorescent product, fluorescein (excitation […], emission 514 nm). All components of the LacZ inhibition assay are dissolved in assay buffer (10 mM MgCl2, 50 mM NaCl, 1 mM DTT, 100 μg/ml BSA, 10
Leading into each droplet forming module (FIG. 15) are two TEFLON® tubes leading from syringe pumps. The channels leading from each tube merge to create a single flow before entering the droplet forming module. The two syringes feeding into the first droplet forming module contain, (a) 50 μM PETG in assay buffer, and (b), assay buffer. The two syringes feeding into the second droplet forming module contain, (c) 100 nM LacZ in assay buffer, and (d), assay buffer. The two syringes feeding into the third droplet forming module contain, (e) 5 mM FMG in assay buffer, and (f), assay buffer. The final concentration of each component in each droplet is independently controllable by adjusting relative flow rates of each component and buffer solution while maintaining a constant combined flow rate from both syringes.
The first droplet fusion mixes the inhibitor (PETG) with the enzyme (LacZ). After the combined droplet has spent two minutes in a delay line it is fused with a third droplet containing the fluorogenic enzyme substrate (FMG). Finally, after all the components are mixed the reaction is observed by measuring fluorescence of individual droplets or by integrating fluorescent light from droplets with the same concentration of each component during 10-second exposure time at multiple points in the second 10 min long delay line. Each fluorescence intensity value at different positions is proportional to the amount of product at different reaction times. Rate of product formation is linear during initial reaction time and initial rate (v) can be determined from linear fitting. […]

[3] = Compartmentalisation of small molecules in water-in-fluorocarbon emulsions (exchange between microdroplets); assay type: physicochemical; conditions: water-in-perfluorooctyl bromide emulsion; 24 hours after mixing
Method: Water-in-fluorocarbon emulsions containing 95% (v/v) perfluorooctyl bromide, 5% (v/v) phosphate buffered saline containing the molecule of interest in solution, and 2% (w/v) C8F17C11H22OP(O)[N(CH2CH2)2O]2 (F8H1 IDMP) as surfactant were formed essentially as (Sadtler et al., 1996) by extrusion (15 times) through 14 μm filters (Osmonics) or by homogenising for 5 min at 25,000 r.p.m. using an Ultra-Turrax T8 Homogenizer (DCA) with a 5 mm dispersing tool. Emulsions were made containing a series of small fluorescent molecules dissolved in the aqueous phase at concentrations from […] to 2 mM. These molecules, including calcein, texas red, fluorescein, coumarin 102, 7-hydroxycoumarm-3-carboxylic acid and 7-diethylamino-4-methyl coumarin (coumarin 1), had molecular weights from 203 to 625 Da and Log P values—calculated using SRC's Log Kow/KowWin Program (Meylan and Howard, 1995)—ranging from −0.49 to 4.09. […]
Compartmentalisation of small molecules in a water-in-fluorocarbon emulsions made using microfluidic systems. […] These molecules, including calcein, texas red, fluorescein, coumarin 102, 7-hydroxycoumarin-3-carboxylic acid and 7-diethylamino-4-methyl coumarin (coumarin 1), had molecular weights from 203 to 625 Da and Log P values—calculated using SRC's Log Kow/KowWin Program (Meylan and Howard, 1995)—ranging from −0.49 to 4.09. […]

PTP1B = target: T2, PTP1B (Homo sapiens, UniProt P18031); conditions: cited from earlier work
T2 sequence (P18031 1-435): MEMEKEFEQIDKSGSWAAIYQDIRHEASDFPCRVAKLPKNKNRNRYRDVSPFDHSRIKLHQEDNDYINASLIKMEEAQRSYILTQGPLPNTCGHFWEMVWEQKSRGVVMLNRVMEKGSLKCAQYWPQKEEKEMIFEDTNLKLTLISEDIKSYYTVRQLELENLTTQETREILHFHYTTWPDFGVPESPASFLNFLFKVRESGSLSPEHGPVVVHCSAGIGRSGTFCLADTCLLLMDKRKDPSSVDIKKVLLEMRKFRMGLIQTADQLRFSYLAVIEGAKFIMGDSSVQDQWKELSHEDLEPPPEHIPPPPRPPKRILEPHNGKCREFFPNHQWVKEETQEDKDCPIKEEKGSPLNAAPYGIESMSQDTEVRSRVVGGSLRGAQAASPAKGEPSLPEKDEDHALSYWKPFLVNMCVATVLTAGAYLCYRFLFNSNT

[4] = target: T3, human recombinant PTP1B, residues 1-322 (Homo sapiens, UniProt P18031); experiment: Screening for PTP1B inhibitors in microcapsules in a microfluidic system, fluorogenic substrate DiFMUP; assay type: biochemical; conditions: Example 2, 100 μM compound solution, PTP1B 50 mU/ml
T3 construct: human recombinant PTP1B, residues 1-322; purchased Biomol Research Laboratories, Inc
T3 sequence (P18031 1-322): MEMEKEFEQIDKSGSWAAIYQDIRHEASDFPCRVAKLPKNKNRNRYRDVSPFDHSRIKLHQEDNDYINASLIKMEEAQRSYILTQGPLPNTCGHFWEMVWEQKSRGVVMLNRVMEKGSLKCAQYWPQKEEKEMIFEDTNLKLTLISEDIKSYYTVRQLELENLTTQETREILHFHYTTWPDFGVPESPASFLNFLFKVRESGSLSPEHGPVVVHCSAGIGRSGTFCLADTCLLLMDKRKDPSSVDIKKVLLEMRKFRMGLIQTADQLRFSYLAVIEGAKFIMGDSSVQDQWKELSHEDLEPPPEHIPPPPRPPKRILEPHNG
Method: All water-soluble reagents are dissolved in (25 mM HEPES, pH 7.4, 125 mM NaCl, 1 mM EDTA), a buffer compatible with PTP1B activity. […] Each microcapsule containing target enzyme is fused with a microcapsule containing compound 2 or a microcapsule containing hydrocinnamic acid. Microcapsules containing either compound 2 or hydrocinnamic acid can be formed by switching between injection with syringes containing compound 2 and hydrocinnamic acid.
After microcapsule fusion the contents are rapidly mixed. After this point the microcapsules are run for up to 1 min through a 60 cm long microchannel (to allow inhibitor binding). This microchannel is then merged with a second microchannel containing aqueous microcapsules containing the fluorogenic PTP1B substrate 6,8-difluoro-4-methylumbelliferyl phosphate (DiFMUP) (Molecular Probes) in 25 mM HEPES, pH 7.4, 125 mM NaCl, 1 mM EDTA and the microcapsules fused pairwise. […] Fluorescence of the microcapsules due to production of DiFMU (excitation/emmission maxima 358/452 nm; blue fluorescence) is measured. […]
The 96 mixtures are distributed into 96 wells of a microtitre plate. […] Inhibitors reduce the amount of non-fluorescent substrate (DiFMUP) converted to the dephosphorylated product (DiFMU; excitation/emmission maxima 358/452 nm; blue fluorescence). Microcapsule fluorescence is then analysed.

[5] = 30 nM LacZ, 0 to 13 μM PETG, 10 to 700 μM FMG

T1 sequence (P00722 2-1024): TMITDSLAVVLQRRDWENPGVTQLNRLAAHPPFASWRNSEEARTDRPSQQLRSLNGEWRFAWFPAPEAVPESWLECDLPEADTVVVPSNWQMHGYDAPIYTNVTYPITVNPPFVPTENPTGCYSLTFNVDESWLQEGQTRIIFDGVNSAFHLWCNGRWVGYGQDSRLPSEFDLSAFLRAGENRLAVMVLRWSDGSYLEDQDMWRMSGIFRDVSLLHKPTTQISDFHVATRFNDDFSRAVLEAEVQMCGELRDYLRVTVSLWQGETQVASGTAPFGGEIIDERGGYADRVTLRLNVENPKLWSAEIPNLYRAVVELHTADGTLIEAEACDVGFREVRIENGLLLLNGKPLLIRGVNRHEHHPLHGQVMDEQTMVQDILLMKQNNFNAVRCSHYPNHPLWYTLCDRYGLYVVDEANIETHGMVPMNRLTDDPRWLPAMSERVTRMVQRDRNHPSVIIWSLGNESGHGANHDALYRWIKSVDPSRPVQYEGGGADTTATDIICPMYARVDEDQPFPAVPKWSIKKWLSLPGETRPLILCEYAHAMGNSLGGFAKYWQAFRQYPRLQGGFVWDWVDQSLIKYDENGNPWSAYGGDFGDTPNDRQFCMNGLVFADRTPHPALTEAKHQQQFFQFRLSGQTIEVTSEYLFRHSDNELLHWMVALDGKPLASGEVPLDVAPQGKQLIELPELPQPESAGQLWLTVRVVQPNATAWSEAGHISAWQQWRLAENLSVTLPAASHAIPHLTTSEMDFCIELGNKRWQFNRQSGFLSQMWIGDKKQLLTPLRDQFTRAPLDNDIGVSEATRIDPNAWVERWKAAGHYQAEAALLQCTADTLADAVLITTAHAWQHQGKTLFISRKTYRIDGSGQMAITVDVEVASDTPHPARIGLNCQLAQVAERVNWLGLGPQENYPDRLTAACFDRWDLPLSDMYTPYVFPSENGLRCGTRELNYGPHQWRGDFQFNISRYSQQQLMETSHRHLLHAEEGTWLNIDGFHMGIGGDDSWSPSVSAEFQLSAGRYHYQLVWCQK

For `O=C1OC2(c3ccc(O)cc3Oc3cc(O[C@@H]4O[C@H](CO)[C@H](O)[C@H](O)[C@H]4O)ccc32)c2ccccc21` (stereo partly drawn) [FMG, fluorescein mono-β-D-galactoside], the “XM of FMG for LacZ, previously published value” [1] is listed as 118 µM and the “XM of FMG for LacZ as determined” value [2, 5] is listed as “within 20% of the previously published value”.
For `O=C(O)CN(CC(=O)O)Cc1cc2c(cc1O)Oc1cc(O)c(CN(CC(=O)O)CC(=O)O)cc1C21OC(=O)c2ccccc21` [calcein], the Exchange between microdroplets/compartments [3] was “No exchange”.
For `OCC1OC(SCCc2ccccc2)C(O)C(O)C1O` [PETG, phenylethyl β-D-thiogalactopyranoside], the Ki ([1]; read-out: Ki of PETG for LacZ, previously published value) is given as 980 nM, the “Ki of PETG for LacZ as determined” value [2, 5] is given as “within the range of the previously published value” and the Mode of inhibition ([2]; Lineweaver-Burk plot) is given as “competitive”.
In the case of texas red, the Exchange between microdroplets/compartments [3] is reported as “No exchange”.
For `O=C(O)CCc1ccccc1` [hydrocinnamic acid], the “PTP1B inhibitor or not (statement)” value (PTP1B) is listed as “not a PTP1B inhibitor” and the “Fluorescence of the microcapsules due to production of DiFMU” value [4] is listed as “exhibiting blue fluorescence”.
